ChEMBL document CHEMBL1268847, “Discovery of orally bioavailable imidazo[1,2-a]pyrazine-based Aurora kinase inhibitors” (Bioorg Med Chem Lett, 2010)

How the values were obtained:
[1] = target: T1, Aurora kinase A (Homo sapiens, UniProt O14965); assay: Inhibition of Aurora A
T1 sequence (O14965 whole entry): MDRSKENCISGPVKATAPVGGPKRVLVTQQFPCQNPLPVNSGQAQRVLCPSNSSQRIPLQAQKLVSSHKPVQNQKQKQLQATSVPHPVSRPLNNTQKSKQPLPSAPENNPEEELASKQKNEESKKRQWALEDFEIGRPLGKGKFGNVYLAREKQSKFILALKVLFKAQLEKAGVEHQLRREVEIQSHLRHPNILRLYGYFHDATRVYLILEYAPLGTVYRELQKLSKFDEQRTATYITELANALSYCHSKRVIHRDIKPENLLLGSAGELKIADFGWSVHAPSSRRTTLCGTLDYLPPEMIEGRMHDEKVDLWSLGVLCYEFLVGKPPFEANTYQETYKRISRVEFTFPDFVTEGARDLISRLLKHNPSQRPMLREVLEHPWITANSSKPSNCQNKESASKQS

[2] = AUC (0-6 hrs) in rat at 10 mg/kg, po; format: ADME, organism-based; design: time < 6 hr, dose 10 mg/kg, route oral; conditions: plasma
[3] = target: Aurora kinase B (Homo sapiens, UniProt Q96GD4); assay: Inhibition of Aurora B
[4] = Inhibition of Aurora kinase assessed as reduction histone H3 Ser10 phosphorylation by cell based assay
[5] = target: Tyrosine-protein kinase Lck (Homo sapiens, UniProt P06239); assay: Inhibition of LCK
[6] = target: Ribosomal protein S6 kinase alpha-3 (Homo sapiens, UniProt P51812); assay: Inhibition of RSK2
[7] = target: Vascular endothelial growth factor receptor 2 (Homo sapiens, UniProt P35968); assay: Inhibition of VEGFR2
[8] = target: T2, Interleukin-1 receptor-associated kinase 4 (Homo sapiens, UniProt Q9NWZ3); assay: Inhibition of IRK4
T2 sequence (Q9NWZ3 whole entry): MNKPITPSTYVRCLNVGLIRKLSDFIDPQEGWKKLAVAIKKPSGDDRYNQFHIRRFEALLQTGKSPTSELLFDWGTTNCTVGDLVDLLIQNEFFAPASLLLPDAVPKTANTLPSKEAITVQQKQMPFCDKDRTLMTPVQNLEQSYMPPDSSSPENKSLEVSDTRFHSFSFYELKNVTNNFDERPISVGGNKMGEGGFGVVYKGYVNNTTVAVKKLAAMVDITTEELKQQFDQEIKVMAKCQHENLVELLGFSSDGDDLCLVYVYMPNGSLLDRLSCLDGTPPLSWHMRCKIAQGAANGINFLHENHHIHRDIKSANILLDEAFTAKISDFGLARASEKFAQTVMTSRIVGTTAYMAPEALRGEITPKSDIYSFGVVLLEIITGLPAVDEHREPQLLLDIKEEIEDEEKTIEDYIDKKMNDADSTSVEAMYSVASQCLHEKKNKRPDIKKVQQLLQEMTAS

[9] = target: T3, Serine/threonine-protein kinase Chk1 (Homo sapiens, UniProt O14757); assay: Inhibition of CHK1
T3 sequence (O14757 whole entry): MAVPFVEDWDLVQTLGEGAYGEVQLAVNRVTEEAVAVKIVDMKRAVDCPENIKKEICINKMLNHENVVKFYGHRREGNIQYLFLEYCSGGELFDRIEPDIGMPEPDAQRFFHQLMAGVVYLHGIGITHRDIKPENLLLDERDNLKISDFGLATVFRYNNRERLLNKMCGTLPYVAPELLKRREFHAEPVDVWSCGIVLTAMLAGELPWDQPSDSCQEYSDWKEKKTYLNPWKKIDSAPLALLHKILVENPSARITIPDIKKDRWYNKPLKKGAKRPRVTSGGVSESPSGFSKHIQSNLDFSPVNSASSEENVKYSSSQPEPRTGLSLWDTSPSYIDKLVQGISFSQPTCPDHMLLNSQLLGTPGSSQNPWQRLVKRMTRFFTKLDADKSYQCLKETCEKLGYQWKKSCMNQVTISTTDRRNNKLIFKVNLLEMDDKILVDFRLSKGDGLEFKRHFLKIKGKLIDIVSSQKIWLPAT

Aurora kinase B, sequence (Q96GD4 whole entry): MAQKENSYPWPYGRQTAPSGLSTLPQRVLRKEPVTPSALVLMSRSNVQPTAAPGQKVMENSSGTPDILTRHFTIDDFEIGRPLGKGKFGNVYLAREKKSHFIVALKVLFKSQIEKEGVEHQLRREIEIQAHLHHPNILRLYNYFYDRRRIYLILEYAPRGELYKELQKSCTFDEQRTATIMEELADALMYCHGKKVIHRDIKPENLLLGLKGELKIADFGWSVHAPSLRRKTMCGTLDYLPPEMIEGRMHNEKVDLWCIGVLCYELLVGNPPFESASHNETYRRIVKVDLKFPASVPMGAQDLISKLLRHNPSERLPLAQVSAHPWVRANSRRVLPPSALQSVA
Tyrosine-protein kinase Lck, sequence (P06239 whole entry): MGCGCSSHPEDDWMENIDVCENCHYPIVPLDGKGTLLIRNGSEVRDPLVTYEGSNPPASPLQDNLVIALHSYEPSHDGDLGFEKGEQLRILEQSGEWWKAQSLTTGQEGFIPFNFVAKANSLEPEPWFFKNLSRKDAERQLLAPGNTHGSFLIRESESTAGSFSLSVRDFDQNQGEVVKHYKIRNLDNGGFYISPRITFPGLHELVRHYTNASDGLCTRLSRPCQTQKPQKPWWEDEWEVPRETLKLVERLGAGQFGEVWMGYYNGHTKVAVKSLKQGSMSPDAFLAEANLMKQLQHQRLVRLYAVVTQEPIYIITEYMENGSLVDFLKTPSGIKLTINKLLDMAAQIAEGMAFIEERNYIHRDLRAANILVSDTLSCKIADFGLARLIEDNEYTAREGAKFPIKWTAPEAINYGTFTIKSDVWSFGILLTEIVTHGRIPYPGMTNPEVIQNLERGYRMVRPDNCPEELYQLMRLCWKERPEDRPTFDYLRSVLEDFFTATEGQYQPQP
Ribosomal protein S6 kinase alpha-3, sequence (P51812 whole entry): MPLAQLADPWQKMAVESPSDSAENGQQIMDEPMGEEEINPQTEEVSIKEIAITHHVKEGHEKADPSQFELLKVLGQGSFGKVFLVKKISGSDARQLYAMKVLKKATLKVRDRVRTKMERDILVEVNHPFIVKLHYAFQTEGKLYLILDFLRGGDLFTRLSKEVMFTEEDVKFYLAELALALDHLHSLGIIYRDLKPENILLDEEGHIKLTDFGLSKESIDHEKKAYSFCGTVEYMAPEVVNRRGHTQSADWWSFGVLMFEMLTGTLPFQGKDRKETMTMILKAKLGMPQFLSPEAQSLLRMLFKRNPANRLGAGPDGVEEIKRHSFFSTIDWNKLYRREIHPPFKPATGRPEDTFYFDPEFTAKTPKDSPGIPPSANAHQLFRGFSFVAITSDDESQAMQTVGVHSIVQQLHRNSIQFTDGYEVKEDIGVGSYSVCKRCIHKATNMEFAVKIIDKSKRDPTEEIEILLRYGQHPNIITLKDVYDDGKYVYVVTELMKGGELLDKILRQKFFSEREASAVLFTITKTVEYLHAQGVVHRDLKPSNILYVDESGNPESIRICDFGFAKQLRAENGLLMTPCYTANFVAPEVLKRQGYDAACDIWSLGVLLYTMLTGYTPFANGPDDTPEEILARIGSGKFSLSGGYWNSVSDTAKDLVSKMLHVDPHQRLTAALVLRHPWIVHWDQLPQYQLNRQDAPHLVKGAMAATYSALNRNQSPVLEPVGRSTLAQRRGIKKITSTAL
Vascular endothelial growth factor receptor 2, sequence (P35968 whole entry): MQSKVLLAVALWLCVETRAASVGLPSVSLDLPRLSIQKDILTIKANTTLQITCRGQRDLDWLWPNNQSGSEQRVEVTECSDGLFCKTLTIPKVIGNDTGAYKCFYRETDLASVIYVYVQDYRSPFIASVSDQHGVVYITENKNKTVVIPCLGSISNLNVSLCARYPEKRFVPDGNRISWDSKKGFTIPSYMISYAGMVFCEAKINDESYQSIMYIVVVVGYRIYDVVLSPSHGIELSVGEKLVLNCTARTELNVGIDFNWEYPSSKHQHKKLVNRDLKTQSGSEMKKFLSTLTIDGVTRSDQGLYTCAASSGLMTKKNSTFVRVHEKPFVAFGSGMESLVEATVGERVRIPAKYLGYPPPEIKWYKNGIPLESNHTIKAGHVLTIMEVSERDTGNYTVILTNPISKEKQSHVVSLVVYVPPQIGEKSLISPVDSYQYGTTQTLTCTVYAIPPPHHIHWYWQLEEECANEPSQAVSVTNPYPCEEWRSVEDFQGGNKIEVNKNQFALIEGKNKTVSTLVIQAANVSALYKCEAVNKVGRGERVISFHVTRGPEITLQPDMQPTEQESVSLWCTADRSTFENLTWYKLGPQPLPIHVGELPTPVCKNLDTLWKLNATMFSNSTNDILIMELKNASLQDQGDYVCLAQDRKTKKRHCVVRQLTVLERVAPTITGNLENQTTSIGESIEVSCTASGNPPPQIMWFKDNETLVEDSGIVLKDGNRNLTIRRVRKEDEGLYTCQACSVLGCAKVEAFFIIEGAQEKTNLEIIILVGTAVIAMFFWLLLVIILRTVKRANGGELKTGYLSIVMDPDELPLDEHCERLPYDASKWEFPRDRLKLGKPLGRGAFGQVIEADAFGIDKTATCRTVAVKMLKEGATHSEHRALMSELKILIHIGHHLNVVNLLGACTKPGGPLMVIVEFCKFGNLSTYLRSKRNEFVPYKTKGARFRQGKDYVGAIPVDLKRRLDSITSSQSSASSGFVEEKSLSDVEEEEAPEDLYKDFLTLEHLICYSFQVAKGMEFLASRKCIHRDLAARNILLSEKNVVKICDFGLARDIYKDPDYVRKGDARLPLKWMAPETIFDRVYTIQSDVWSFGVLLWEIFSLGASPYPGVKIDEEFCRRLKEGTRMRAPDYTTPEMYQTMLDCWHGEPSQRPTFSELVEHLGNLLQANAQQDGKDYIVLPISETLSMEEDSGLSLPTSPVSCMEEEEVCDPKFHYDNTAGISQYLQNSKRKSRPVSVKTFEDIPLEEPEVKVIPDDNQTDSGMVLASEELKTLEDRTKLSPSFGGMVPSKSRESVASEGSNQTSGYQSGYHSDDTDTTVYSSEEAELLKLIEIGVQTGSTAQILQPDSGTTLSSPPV

IC50 [1] | AUC(0-t) at 6 h [2] | IC50 [3] | EC50 [4] | IC50 [5] | IC50 [6] | IC50 [7] | IC50 [8] | IC50 [9] | SMILES
≤ 4 nM | 0.4 µM·h | ≤ 13 nM | 197 nM | – | – | – | – | – | Cc1cn2c(-c3cn[nH]c3)cnc2c(Nc2cc(CN3CCOCC34CCC4)ns2)n1
≤ 4 nM | 0.4 µM·h | ≤ 13 nM | 267 nM | – | – | – | – | – | Cc1cn2c(-c3cn[nH]c3)cnc2c(Nc2cc(CN3C[C@H]4CC[C@@H](C3)O4)ns2)n1
≤ 4 nM | 1.3 µM·h | ≤ 13 nM | 71 nM | – | – | – | – | – | Cc1cn2c(-c3cn[nH]c3)cnc2c(Nc2cc(C(C)N3CCOC(C)(C)C3)ns2)n1 (racemic)
≤ 4 nM | 1.1 µM·h | ≤ 13 nM | 74 nM | – | – | – | – | – | Cc1cn2c(-c3cn[nH]c3)cnc2c(Nc2cc(C(C)N3CCOCC3)ns2)n1 (racemic)
≤ 4 nM | 0.38 µM·h | ≤ 13 nM | 561 nM | – | – | – | – | – | CCOC(=O)N1CCN(Cc2cc(Nc3nc(C)cn4c(-c5cn[nH]c5)cnc34)sn2)CC1
≤ 4 nM | – | ≤ 13 nM | 250 nM | – | – | – | – | – | Cc1cn2c(-c3cn[nH]c3)cnc2c(Nc2cc(CN3CCOC(C)(C)C3)ns2)n1
≤ 4 nM | – | ≤ 13 nM | > 1000 nM | – | – | – | – | – | Cc1cn2c(-c3cn[nH]c3)cnc2c(Nc2cc(CN3CCN(C)CC3=O)ns2)n1
45 nM | 0.3 µM·h | 50 nM | 733 nM | – | – | – | – | – | Cc1cn2c(-c3cn[nH]c3)cnc2c(Nc2cc(C3(N4C[C@@H](C)O[C@@H](C)C4)CC3)ns2)n1
– | 1.1 µM·h | – | 217 nM | – | – | – | – | – | Cc1cn2c(-c3cn[nH]c3)cnc2c(Nc2cc([C@H](C)N3C[C@@H](C)O[C@@H](C)C3)ns2)n1
≤ 4 nM | – | ≤ 13 nM | 281 nM | – | – | – | – | – | CCOCC(c1cc(Nc2nc(C)cn3c(-c4cn[nH]c4)cnc23)sn1)N1CCOCC1 (racemic)
≤ 4 nM | – | ≤ 13 nM | > 1000 nM | – | – | – | – | – | CC(=O)N1CCN(Cc2cc(Nc3nc(C)cn4c(-c5cn[nH]c5)cnc34)sn2)CC1
≤ 4 nM | 8 µM·h | ≤ 13 nM | 55 nM | – | – | – | – | – | Cc1cn2c(-c3cn[nH]c3)cnc2c(Nc2cc(C(C)N3C[C@@H](C)O[C@@H](C)C3)ns2)n1 (mixture of isomers)
– | – | ≤ 13 nM | 250 nM | 568 nM | – | – | – | – | Cc1cc(Nc2nc(C)cn3c(-c4cn[nH]c4)cnc23)sn1
≤ 4 nM | – | ≤ 13 nM | 24 nM | ≤ 1 nM | 180 nM | ≤ 1 nM | 8 nM | 13 nM | CCN(Cc1cc(Nc2nc(C)cn3c(-c4cn[nH]c4)cnc23)sn1)C(C)(C)CO
≤ 4 nM | 2.3 µM·h | ≤ 13 nM | 83 nM | – | – | – | – | – | COCC(c1cc(Nc2nc(C)cn3c(-c4cn[nH]c4)cnc23)sn1)N1CCOCC1 (racemic)
